This is an account of results in publication PMC4413647, “Simultaneous targeting of androgen receptor (AR) and MAPK-interacting kinases (MNKs) by novel retinamides inhibits growth of human prostate cancer cell lines” (Oncotarget, 2014).

As usually defined, the GI50 is the concentration that inhibits growth by half.

One assay deals with C4-2B cells. As to the kind of experiment: MTT cell proliferation assay, 7 d, C4-2B. Type of assay: cell-based. As to conditions: Homo sapiens, 168 h, 7 d treatment. From the text: (§1) Androgen-dependent (LNCaP), androgen-independent (PC-3) and castration resistant (C4-2B and 22Rv1) human prostate carcinoma cells were procured from American Type Culture Collection, Manassas, VA, USA and maintained in RPMI 1640 media (Gibco-Life Technologies, Grand Island, NY, USA) supplemented with 10% fetal bovine serum and 1% penicillin/streptomycin. […] Immortalized untransformed prostate epithelial cells, PWR1E from American Type Culture Collection were maintained in serum-free Keratinocyte media (Gibco) supplemented with epidermal growth factor and bovine pituitary extract. All cell lines were maintained in a 37 °C/5% CO2 humidified atmosphere.
(§2) Cell proliferation assay was performed as described previously. For cell growth experiment, cells were treated with the NRs for 7 days. MTT assay was performed at the end of the experiment. Calculations of combination indices were done using the Calcusyn program (Biosoft, Cambridge, United Kingdom). For colony formation assay, cells were plated 1000 per well in complete media and allowed to adhere for 24 h. The next day cells were treated with indicated compounds (5 μM). After 24 h compound containing media were removed, and cells were allowed to form colonies in complete media. Approximately 2 weeks later the colonies were fixed, stained with 0.5% crystal violet (sigma) for 30 min and counted manually. Results represent the mean ± standard deviation of three independent experiments.

A further assay deals with Bax, cleaved PARP-1. As to the kind of experiment: Western blot of Bax and cleaved PARP-1 in PCa cells. Type of assay: cell-based, human. The following applies: 20 μM, 24 h, among the lead NRs. The method, then:
Figure 4 Effect of NRs on cell cycle and apoptosis (A) LNCaP cells treated with 5 μM of NRs and other compounds for 24 h were stained with PI and analysed with a FACS calibur flow cytometer. (B) Total cell lysates from PCa cells treated with 20 μM of NRs were separated by SDS-PAGE and probed with cyclin D1 and B antibodies. […] (C) LNCaP cells were treated with indicated compounds (5 μmol/L) for 24 h and apoptosis induction was examined by oligonucleosomal fragmentation. Data are shown relative to vehicle treated control and the bars are means of three replicate determinations plus standard deviations. *, P< 0.01; ♣, P<0.05 compared with vehicle treated control. (D) PCa cells as indicated were seeded in 24 well plate, and treated with 5 μmol/L of NRs the subsequent day. After 24 h the plates were analyzed for apoptotic and viable cells using acridine orange/ethidium bromide staining. (E) Western blot analysis of apoptosis associated Bax and cPARP in PCa cells treated with NRs (20 μmol/L) for 24 h. (F) Apoptosis induction in LNCaP cells treated with 5 μmol/L of VNLG-147 and -152 in the presence or absence of ZVAD (5 μmol/L) was assessed by oligonucleosomal fragmentation after 24 h incubation. *, P< 0.05 compared with vehicle treated control. […]
On the technique in general: Immunoblotting shows a protein as a band on a membrane.

In another assay the test system is PCa cells. As to the kind of experiment: MTT cell viability in PCa cells (LNCaP, PC-3, C4-2B, 22Rv1). As to conditions: Homo sapiens, range over PCa cell lines. Type of assay: cell-based, human. Here is the method:
as §2

The subject of the next assay is MR49F cells. As to the kind of experiment: MTT growth inhibition in Enzalutamide resistant MR49F cells. The following applies: Homo sapiens, MR49F; read-out: GI50 MR49F (Figure 2C). Type of assay: cell-based, human. Here is the method: Figure 2 Effect of NRs on PCa cell growth and colony formation (A) Representative photographs of colonies formed in PCa cells at 14th day after initial treatment with specified compounds (5 μmol/L). Colonies were fixed with methanol and stained with crystal violet. (B) Data represents the mean ± S.E from three independent experiments. *, P< 0.05; ♣, P<0.01 compared to vehicle treated control. […] NRs that had promising inhibitory effect on cell proliferation on LNCaP cells were tested for their growth inhibitory effect in MR49F cells in comparison with Casodex and Abiraterone acetate by MTT assay.
as §1, §2

Assay [1] concerns PC-3 cells. Put plainly: MTT cell proliferation assay, 7 d, PC-3. Type of assay: cell-based. The following applies: Homo sapiens, PC-3, 168 h, 7 d treatment.
From the text: as §1, §2

In another assay the test system is LNCaP cells. Put plainly: MTT cell proliferation assay, 7 d, LNCaP. As to conditions: Homo sapiens, LNCaP, 168 h, 7 d treatment. Type of assay: cell-based, human.
From the text: as §1, §2
(Formazan colour is commonly taken as a measure of viable cells.)

The test system of another assay is PWR-1E cells. Put plainly: MTT cell proliferation assay, 7 d, PWR-1E. As to conditions: Homo sapiens, 168 h, immortalized untransformed prostate cells, 7 d treatment. Type of assay: cell-based.
From the text: as §1, §2

For another assay, the system named is 22Rv1 cells. As to the kind of experiment: MTT cell proliferation assay, 7 d, 22Rv1. Type of assay: cell-based. The following applies: Homo sapiens, 22Rv1, 168 h, 7 d treatment.
From the text: as §1, §2

The test system of assay [2] is PC-3 cells. Put plainly: Boyden chamber matrigel invasion assay. Type of assay: cell-based, human. As to conditions: PC-3, 5 μM, 24 h. Here is the method:
Figure 5 Anti-migratory and anti-invasive potential of NRs (A) Effect of NRs treatment (5 μmol/L) on PC-3 cell migration was assessed by wound healing assay after 24 h of wound formation. Representative photomicrographs of initial and final wounds are shown at 100x magnification. (B) Effect of NRs on PC-3 cell invasion was evaluated by transwell migration assay. PC-3 cells were seeded on matrigel coated boyden chamber and treated with NRs (5 μmol/L, 24 h). Photographs represent the extent of cell invasion in each of the treated cells. (C) Western blot analysis of the effect of NRs on the expression of cadherins in PC-3 cells. Cells were treated with indicated compound 20 μmol/L for 24 h.
The invasion assay in PC-3 cells was performed using Matrigel (BD Biosciences, Bedford, MA, USA)-coated transwell cell culture chambers (8 μm pore size, EMD Millipore, Temecula, CA, USA) as described previously (43). Briefly, PC-3 cells (5 × 10^4 cells/well) were cultured in the upper chamber of the transwell insert for 24 h in serum-free RPMI-1640 medium. The cells were then treated with 5 μM of indicated compounds for 24 h. RPMI-1640 medium containing 10% FBS was placed in the lower chamber. At the end of incubation, the top surface of the non-migrated cells were scraped gently with cotton swabs and the cells on the lower surface of the membrane (migrated cells) were fixed for 15 min with cold methanol and stained with crystal violet. Cells that had migrated to the bottom of the membrane were visualized and counted using an inverted microscope. For each replicate (n = 3), cells in three randomly selected fields were counted and averaged.

The subject of assay [3] is PC-3 cells. As to the kind of experiment: Wound healing migration assay. The following applies: 5 μM, 24 h. Type of assay: cell-based, human. The method, then:
Figure 5 Anti-migratory and anti-invasive potential of NRs (A) Effect of NRs treatment (5 μmol/L) on PC-3 cell migration was assessed by wound healing assay after 24 h of wound formation. Representative photomicrographs of initial and final wounds are shown at 100x magnification. (B) Effect of NRs on PC-3 cell invasion was evaluated by transwell migration assay. PC-3 cells were seeded on matrigel coated boyden chamber and treated with NRs (5 μmol/L, 24 h). Photographs represent the extent of cell invasion in each of the treated cells. (C) Western blot analysis of the effect of NRs on the expression of cadherins in PC-3 cells. Cells were treated with indicated compound 20 μmol/L for 24 h. […] For wound healing assay highly metastatic PC-3 cells were plated in a 24 well plate at a seeding density of 5 × 10^5 cells/ well and allowed to form a confluent monolayer for 24 h. Cells were made dormant by pretreating with 0.5 μmol/L mitomycin C for 2 h to ensure that wounds are filled due to cell migration and not by cell proliferation. Subsequently, the monolayer was scratched with a pipette tip, washed with media to remove floating cells, and photographed (time 0 h). Cells were then treated with indicated compounds (5 μM) and the experiment was terminated as soon as wound was completely filled in vehicle treated controls. Cells were then photographed again using Nikon TE2000 microscope at three randomly selected sites per well [43].

Where two headings read alike, the source gives them in different places.

With `CC1=C(/C=C/C(C)=C/C=C/C(C)=C/C(=O)Nc2ccccc2O)C(C)(C)CCC1n1ccnc1` (centres unmarked) [VNLG-147], the GI50 with C4-2B cells was 2.66 µM; in the assay with PCa cells it was 1.5 to 5.5 µM; with MR49F cells it was 4.26 µM; with PC-3 cells [1] it was 2.95 µM; with LNCaP cells (read-out: GI50 LNCaP), 1.86 µM; in the assay with LNCaP cells (DHT induced, read-out: GI50 LNCaP, DHT induced), 1.41 µM. In addition, the figures for the GI50 with PWR-1E cells and in the assay with 22Rv1 cells were 71.5 µM and 2.04 µM, respectively. In addition, in the assay on Bax, cleaved PARP-1, the “efficacy in inducing PARP cleavage and/or increasing Bax expression” value is “greater efficacies”. The “percentage of cell invasion compared to control” value in the assay on PC-3 cells [2] is given as 33. Besides, the “PC-3 cell migration to the denuded zone” value in the assay on PC-3 cells [3] is reported as “potentially suppressed”.
